The subject of one data set is Hartley's guinea pigs. The data set is described as follows: Adjuvanticity with a water in oil emulsion (comparative assay), ovalbumin antigen. It counts as in vivo. The note with it: 50 μg compound with FIA + ovalbumin.
A further data set relates to Swiss common stock mice. Briefly: Toxicity: lethal dose in mice, intravenous injection. It counts as in vivo. The note with it: 300 μg, adrenalectomised mice. On the procedure: The compound according to the invention has been compared with the lipopolysaccharide (LPS) prepared by the phenol-water procedure from S.enteriditis, with regard to their lethal doses (LD).
The method used to carry out these experiments is described by Chedid and al. in Ann. N.Y. Acad. Sci. 133:712, 1966. The tests are made on two month old Swiss common stock mice. The assayed products are administered by intravenous injections.
The compound according to the invention has been compared with the lipopolysaccharide (LPS) prepared by the phenol-water procedure from S.enteriditis with regard to their lethal dose (LD).
The method used to carry out these experiments is described by Chedid and al. in Ann. N.Y. Acad. Sci. 135:712, 1966. The tests are made on two month old Swiss common stock mice. The assayed products are administered by intravenous injection.

Data set [1] has as its system mice. Briefly: Adjuvanticity in aqueous solution: antibody levels in mice after BSA plus adjuvant in saline (PHA, ABC). The note with it: for antibody ABC Day 14 / antibody ABC Day 28 / antibody PHA Day 14 / antibody PHA Day 28: primary response; for antibody ABC Day 34 / antibody ABC Day 36 / antibody PHA Day 34 / antibody PHA Day 36: secondary response (BSA recall day 30); for adjuvanticity in aqueous solution (antibody titer), in words: administered in saline with BSA, mice. Format: in vivo. On the procedure:
In these experiments, the antibody levels in mice are determined following the injection of various compositions. The injected compositions contain bovine serum albumin (BSA) as antigen and the adjuvant compound according to the invention. The mice used as controls received the BSA and lipopolysaccharides. The compositions are injected in solution in saline. The injected dose of BSA is 0.5 mg per mouse, the recall dose (30 days after the first injection) contains 0.1 mg of BSA. Each tested composition is administered to eight mice. At various time intervals following the injection, the mice are bled to check the antibody level.
The antibody estimation is made either by passive hemagglutination (PHA) using formalinized sheep red blood cells coated with the tested antigen, or according to the method taught by A. A. Hirata and M. W. Brandiss (J. Immunol., 100, 641-648, 1968), or by the so-called antigen binding capacity method as described by P. Minden and S. Farr (Handbook of Exp. Immunol., p. 463, Weir D. M. ed. Blackwell Scientific Pub., Oxford and Edinburgh, 1967). […]
The antibody estimation is made either by passive hemagglutination (PHA) using formalinized sheep red blood cells coated with the tested antigen, or according to method taught by A. A. Hirata and M. W. Brandiss (J. Immunol., 100, 641-648, 1968), or by the so-called antigen binding capacity method described by P. Minden and S. Farr (Handbook of Exp. Immunol., p. 463, Weir D. M. ed. Blackwell Scientific Pub., Oxford and Edinburgh, 1967).

Another data set relates to Hartley guinea pigs. The note with it: for immunogenicity, in words: conclusion from skin tests in guinea pigs; for hypersensitivity reaction, in words: guinea pigs treated with FIA + compound.
Data set [2] has as its system mice. Briefly: Reaction to influenza virus: adjuvanticity with influenza vaccine (hemagglutination inhibition). It counts as in vivo. The note with it: vaccine + adjuvant compound versus vaccine only, vaccine recall after 30 days. On the procedure: The adjuvanticity of the Mur-NAc-L-Ala-D-Glu-α-NH2 has been studied against the influenza vaccine on mice. The tested animals are injected with the vaccine and the adjuvant compound whereas controls only received the vaccine. Thirty days later, a recall containing only the vaccine is injected.
It is to be observed that the antibody level is much higher in animals which have received both vaccine and adjuvant compound than in controls. (The measure is made by hemagglutination inhibition following the method proposed by the World Health Organisation Comitee (1953).)

Where [3] appears, read: 100 μg per mouse + BSA in saline.
The mark [4] stands for this setting: 30 μg per mouse + BSA in saline.
The mark [5] stands for this setting: 300 μg per mouse + BSA in saline.

Experimental findings from US4158052A, “Oil-free adjuvant compositions containing N-acetyl-muramyl-L-alanyl-D-isoglutamine” (priority 1975, dated 1979) are described below.

The structures appear in SMILES notation. “Also recorded” adds a separate entry of the source. A value given as a limit tells only on which side of the number the result lay.

Description for Hartley guinea pigs: For comparison, simultaneous tests were carried out with Freund's complete adjuvant (FCA).
Hartley guinea pigs weighing 350 g are skin-tested. […] Forty-eight hours after this second injection, the diameter of reaction is measured (in mm).
The estimation is made as previously described.
Description for Hartley's guinea pigs: As previously, the adjuvanticity is estimated from the increase of the antibody level following an antigen injection. In these experiments, ovalbumin is used as antigen. Assays are carried out on Hartley's guinea pigs weighing 350 g. The animals are injected with 0.1 ml in each posterior footpad. Each dose contains 1 mg ovalbumin and either the Freund's complete adjuvant (FCA) or the Freund's incomplete adjuvant (FIA) or this one with the compound of the invention (50 μg). The antibody titer is estimated 21 days after the injection, by passive hemagglutination as indicated above, or by precipitation according to Folin's method.
A skin test for delayed hypersensitivity is made 18 days after the injection on the same animals. They received 5 μg of ovalbumin by intradermal injection. 48 hours later, the diameter of reaction is measured (in mm).

On to `CC(=O)N[C@H]1C(O)O[C@H](CO)[C@@H](O)[C@@H]1O[C@H](C)C(=O)N[C@@H](C)C(=O)N[C@H](CCC(=O)O)C(=O)O` (stereo partly drawn) [Mur-NAc-L-Ala-D-Glu(OH), 2-(2-acetamido-2-deoxy-3-O-D-glucopyranosyl)-D-propionyl-L-alanyl-D-glutamic acid], for which the “antibody titer against ovalbumin, in words” value with Hartley's guinea pigs was “does not induce an increase of the antibody titer”. For the same compound, the “skin test reaction to ovalbumin (delayed hypersensitivity), in words” value with Hartley's guinea pigs (compared with FCA) is on record as “light”. In addition, the survival after injection result with Swiss common stock mice is “All mice survived”. In addition, in the data set on mice [1] (setting [3]), the “antibody ABC Day 14” value was less than 20, the “antibody ABC Day 28” value is 80, the “antibody PHA Day 14” value is recorded as 3 and the “antibody PHA Day 28” value came out at 50. In the data set with mice [1] (setting [3]), the “antibody ABC Day 34” value stood at 320, the “antibody ABC Day 36” value is listed as 630, the “antibody PHA Day 34” value is reported as 400 and the “antibody PHA Day 36” value is 2,130. Also, the “adjuvanticity in aqueous solution (antibody titer), in words” value with mice [1] was “induces an enhancement of the antibody titer”. Further, in the data set with Hartley guinea pigs, the “immunogenicity, in words” value is listed as “not immunogenic” and the “hypersensitivity reaction, in words” value is given as “no hypersensitivity reaction is observed”.

Consider `CC(=O)N[C@@H]1[C@@H](O[C@H](C)C(=O)N[C@@H](C)C(=O)N[C@H](CCC(=O)O)C(N)=O)[C@H](O)[C@@H](CO)O[C@H]1O` [Mur-NAc-L-Ala-D-Glu-α-NH2, 2-(2-acetamido-2-deoxy-3-O-D-glucopyranosyl)-D-propionyl-L-alanyl-D-α-isoglutamine], for which, in the data set on mice [2], the “antibody level against influenza vaccine (hemagglutination inhibition), in words” value is “much higher”. The survival after injection result in the data set with Swiss common stock mice was “All the mice survived”. Besides, in the data set on mice [1] (setting [4]), the “antibody ABC Day 14” value is less than 20, the “antibody ABC Day 28” value was 75, the “antibody PHA Day 14” value was 3 and the “antibody PHA Day 28” value is on record as 25. Besides, in the data set on mice [1] (setting [4]), the “antibody ABC Day 34” value came to 210, the “antibody ABC Day 36” value turned out to be 400, the “antibody PHA Day 34” value was 200 and the “antibody PHA Day 36” value came to 800. Further, in the data set with mice [1] (setting [3]), the “antibody ABC Day 14” value is less than 20, the “antibody ABC Day 28” value worked out at 82, the “antibody PHA Day 14” value is less than 3 and the “antibody PHA Day 28” value is listed as 25. In addition, in the data set on mice [1] (setting [3]), the “antibody ABC Day 34” value came out at 270, the “antibody ABC Day 36” value amounted to 520, the “antibody PHA Day 34” value turned out to be 400 and the “antibody PHA Day 36” value was 2150. Also, in the data set on mice [1] (setting [5]), the “antibody ABC Day 14” value is given as less than 20, the “antibody ABC Day 28” value was found to be 50, the “antibody PHA Day 14” value was less than 3 and the “antibody PHA Day 28” value is on record as 25. Moreover, in the data set with mice [1] (setting [5]), the “antibody ABC Day 34” value is recorded as 230, the “antibody ABC Day 36” value came out at 550, the “antibody PHA Day 34” value was found to be 200 and the “antibody PHA Day 36” value is given as 975. Besides, the “adjuvanticity in aqueous solution (antibody titer), in words” value in the data set on mice [1] is “induces an enhancement of the antibody titer that can be compared with the one caused by injecting the LPS; also recorded: high antibody titers were observed”. In addition, in the data set with Hartley guinea pigs, the “immunogenicity, in words” value is “not immunogenic” and the “hypersensitivity reaction, in words” value is “no hypersensitivity reaction is observed”.
